# Measurements taken from patent US11040981B2, “Pyrrolotriazine compounds and methods of inhibiting TAM kinases” (Syros Pharmaceuticals, Inc., priority 2017, dated 2021).
# Legend:
# MERTK = target: T1, MERTK (Homo sapiens, UniProt Q12866); test: TR-FRET kinase activity assay, MERTK; assay type: biochemical; details: for IC50: TR-FRET activity assay, ATP at Km, 60 minutes, read-out: Mer IC50; for FLT3/Mer ratio (FLT3 IC50/Mer IC50): ratio of Mer to FLT3: FLT3 IC50/Mer IC50
# T1 sequence (Q12866 21-999): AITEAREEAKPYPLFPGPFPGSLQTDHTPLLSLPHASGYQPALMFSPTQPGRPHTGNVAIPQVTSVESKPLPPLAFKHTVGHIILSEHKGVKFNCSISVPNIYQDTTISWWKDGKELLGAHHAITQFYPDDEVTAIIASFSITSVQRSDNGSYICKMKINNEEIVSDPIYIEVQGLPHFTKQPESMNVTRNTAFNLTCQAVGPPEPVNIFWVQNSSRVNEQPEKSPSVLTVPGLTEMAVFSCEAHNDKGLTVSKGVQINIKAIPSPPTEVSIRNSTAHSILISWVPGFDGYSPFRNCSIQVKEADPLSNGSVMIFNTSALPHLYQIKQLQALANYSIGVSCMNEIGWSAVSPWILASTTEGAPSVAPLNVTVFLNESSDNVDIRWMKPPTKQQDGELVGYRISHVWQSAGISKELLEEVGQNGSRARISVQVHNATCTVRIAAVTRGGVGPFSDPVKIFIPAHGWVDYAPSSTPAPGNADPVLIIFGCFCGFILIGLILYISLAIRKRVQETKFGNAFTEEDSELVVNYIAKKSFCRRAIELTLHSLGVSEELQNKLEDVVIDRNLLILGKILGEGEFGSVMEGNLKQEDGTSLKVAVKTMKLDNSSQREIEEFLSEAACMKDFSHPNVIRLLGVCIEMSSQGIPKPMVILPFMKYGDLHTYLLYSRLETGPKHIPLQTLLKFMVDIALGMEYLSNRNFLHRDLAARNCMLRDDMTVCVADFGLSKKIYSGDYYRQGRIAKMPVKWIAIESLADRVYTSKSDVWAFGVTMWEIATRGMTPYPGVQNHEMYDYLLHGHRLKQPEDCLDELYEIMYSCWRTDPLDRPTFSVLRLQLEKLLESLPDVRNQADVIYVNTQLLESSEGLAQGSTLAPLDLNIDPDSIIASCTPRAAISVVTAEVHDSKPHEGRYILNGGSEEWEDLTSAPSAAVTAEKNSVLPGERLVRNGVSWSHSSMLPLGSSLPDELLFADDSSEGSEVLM
# Experimental: (§1) IC50 values for compound inhibition of AXL, FLT3, MERTK and TYRO3 activity were determined by using a TR-FRET activity assay. A polypeptide substrate with a fluorescent label is phosphorylated on a tyrosine by each enzyme, where the now phosphorylated product is bound by a Europium-labeled antibody specific to that phosphorylation site. The proximity between the antibody and the substrate gives a signal known as TR-FRET. As the enzyme is inhibited by compound, less phosphorylated peptide product is made causing a decrease in overall signal.
# (§2) Activity assays were performed in a 384-well, small volume, black microplates in an active enzyme volume of 10 μL and final developed volume of 20 μL. Final assay conditions are 50 mM HEPES pH 7.5, 10 mM MgCl2, 1 mM EGTA, 0.01% Brij 35 and 1 mM DTT all at RT. Enzyme, substrate labeled peptide and compound are mixed, and then the reaction is initiated with the addition of ATP at Km concentration for each enzyme. The reaction is allowed to run 60 minutes and then quenched with a 12.5 mM EDTA (ethylenediamine tetraacetic acid) solution. The plate is then developed with the addition of Europium labeled antibody for a final volume of 20 μL and is then incubated for 30 minutes in darkness. Plates are read in a Pherastar plate reader. Data is analyzed in GraphPad PRISM.
# (§3) The results of these assays are shown in Table 1, below, wherein “No.” designates compound number (FIG. 1); “A” represents a value of ≤100 nM; “B” a value of >100 nM and ≤1 μM; “C” a value of >1 μM and ≤10 μM; “D” a value of >10 μM; “ND” is not determined. The ratio of Mer to FLT3 is calculated as follows: FLT3 IC50/Mer IC50. “+” represents a ratio of >2.0 and <10; “++” represents a ratio of between 10 and 100; and “+++” represents a ratio of >100.
# FLT3 = target: T2, FLT3 (Homo sapiens, UniProt P36888); test: TR-FRET kinase activity assay, FLT3; assay type: biochemical; details: ATP at Km, 60 minutes
# T2 sequence (P36888 27-993): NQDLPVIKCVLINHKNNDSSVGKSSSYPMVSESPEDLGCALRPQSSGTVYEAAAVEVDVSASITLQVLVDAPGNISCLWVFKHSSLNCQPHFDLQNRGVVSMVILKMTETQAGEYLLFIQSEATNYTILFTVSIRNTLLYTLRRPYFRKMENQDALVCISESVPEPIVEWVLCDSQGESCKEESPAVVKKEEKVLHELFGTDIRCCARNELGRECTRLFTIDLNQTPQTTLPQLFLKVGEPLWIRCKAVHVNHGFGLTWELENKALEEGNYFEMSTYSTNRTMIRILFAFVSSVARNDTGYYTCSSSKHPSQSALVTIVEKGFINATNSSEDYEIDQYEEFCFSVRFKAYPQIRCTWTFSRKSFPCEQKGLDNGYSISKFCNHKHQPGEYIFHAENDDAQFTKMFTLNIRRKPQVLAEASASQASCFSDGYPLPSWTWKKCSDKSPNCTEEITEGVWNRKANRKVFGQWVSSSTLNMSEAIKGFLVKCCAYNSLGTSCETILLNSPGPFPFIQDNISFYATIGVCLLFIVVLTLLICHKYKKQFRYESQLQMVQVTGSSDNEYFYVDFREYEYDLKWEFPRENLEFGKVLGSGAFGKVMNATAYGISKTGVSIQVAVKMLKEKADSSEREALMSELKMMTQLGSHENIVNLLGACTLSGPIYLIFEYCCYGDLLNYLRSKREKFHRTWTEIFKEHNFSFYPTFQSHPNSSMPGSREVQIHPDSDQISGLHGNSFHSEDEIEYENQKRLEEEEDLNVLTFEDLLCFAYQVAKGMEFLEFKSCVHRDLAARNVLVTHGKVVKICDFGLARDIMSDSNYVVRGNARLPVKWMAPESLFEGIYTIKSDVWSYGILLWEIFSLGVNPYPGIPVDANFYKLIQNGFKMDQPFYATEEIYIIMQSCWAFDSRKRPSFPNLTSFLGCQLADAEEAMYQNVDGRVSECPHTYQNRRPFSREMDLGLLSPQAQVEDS
# Experimental: as §1, §2, §3
Structure (SMILES),IC50 (MERTK),FLT3/Mer ratio (FLT3 IC50/Mer IC50) (MERTK),IC50 (FLT3)
CCCCCC(C)Nc1ncc2c(C3=CCC(C(=O)N4CCOCC4)CC3)cc(C3CCC(O)CC3)n2n1 (mixture of isomers) [Compound 110],≤ 100 nM,++ (“++” represents a ratio of between 10 and 100),100 to 1000 nM
CCCCC[C@H](C)Nc1ncc2c(-c3ccc(CN4CCN(C)CC4)cc3)cc([C@H]3CC[C@H](O)CC3)n2n1 [Compound 104],≤ 100 nM,++ (“++” represents a ratio of between 10 and 100),100 to 1000 nM
CCCCC[C@H](C)Nc1ncc2c(-c3ccc(CN4CCN(C)CC4)cc3)cc([C@H]3CC[C@@H](O)CC3)n2n1 [Compound 105],≤ 100 nM,+ (“+” represents a ratio of >2.0 and <10),100 to 1000 nM
CCCCC[C@H](C)Nc1ncc2c(NC3CCN(C)CC3)cc([C@H]3CC[C@H](O)CC3)n2n1 [Compound 107],≤ 100 nM,+++ (“+++” represents a ratio of >100),100 to 1000 nM
"CCCCC[C@H](C)Nc1ncc2c([C@H]3CC[C@@H](C(=O)N4CCOCC4)CC3)cc([C@H]3CC[C@H](O)CC3)n2n1 [Compound 109, ((cis)-4-(2-((S)-heptan-2-ylamino)-7-((trans)-4-hydroxycyclohexyl)pyrrolo[2,1-f][1,2,4]triazin-5-yl)cyclohexyl)(morpholino)methanone]",≤ 100 nM,++ (“++” represents a ratio of between 10 and 100),100 to 1000 nM
COCC(C)Nc1ncc2c(-c3ccc4nccn4c3)cc(C3CCC(O)CC3)n2n1 (stereo not drawn) [Compound 193],≤ 100 nM,+++ (“+++” represents a ratio of >100),1000 to 10000 nM
COC[C@H](C)Nc1ncc2c(-c3ccc(C(=O)N4CCS(=O)(=O)CC4)cc3)cc([C@H]3CC[C@H](O)CC3)n2n1 [Compound 197],≤ 100 nM,+++ (“+++” represents a ratio of >100),100 to 1000 nM
COC[C@H](C)Nc1ncc2c(-c3cncc(C#N)c3)cc([C@H]3CC[C@H](O)CC3)n2n1 [Compound 201],≤ 100 nM,+++ (“+++” represents a ratio of >100),1000 to 10000 nM
C[C@@H](CC(F)(F)F)Nc1ncc2c(-c3ccc(CN4CCOCC4)cc3)cc([C@H]3CC[C@H](O)CC3)n2n1 [Compound 203],≤ 100 nM,++ (“++” represents a ratio of between 10 and 100),≤ 100 nM
C[C@H](Nc1ncc2c(-c3ccc(CN4CCOCC4)cc3)cc([C@H]3CC[C@H](O)CC3)n2n1)[C@H]1CCCO1 [Compound 204],100 to 1000 nM,++ (“++” represents a ratio of between 10 and 100),1000 to 10000 nM
C[C@H](Nc1ncc2c(-c3ccc(CN4CCOCC4)cc3)cc([C@H]3CC[C@H](O)CC3)n2n1)[C@@H]1CCCO1 [Compound 205],≤ 100 nM,+++ (“+++” represents a ratio of >100),1000 to 10000 nM
COCCn1cc(-c2cc([C@H]3CC[C@H](O)CC3)n3nc(N[C@@H](C)COC)ncc23)cn1 [Compound 209],≤ 100 nM,+++ (“+++” represents a ratio of >100),100 to 1000 nM
COCC[C@@H](C)Nc1ncc2c(-c3ccc(CN4CCOCC4)cc3)cc([C@H]3CC[C@H](O)CC3)n2n1 [Compound 212],≤ 100 nM,++ (“++” represents a ratio of between 10 and 100),1000 to 10000 nM

# Continued, values first:
IC50 (MERTK),FLT3/Mer ratio (FLT3 IC50/Mer IC50) (MERTK),IC50 (FLT3),Structure (SMILES)
≤ 100 nM,+++ (“+++” represents a ratio of >100),100 to 1000 nM,CCCCC[C@H](C)Nc1ncc2c([C@H]3CC[C@H](C(=O)N4CCOCC4)CC3)cc([C@H]3CC[C@H](O)CC3)n2n1 [Compound 108]
≤ 100 nM,+++ (“+++” represents a ratio of >100),1000 to 10000 nM,COC[C@H](C)Nc1ncc2c(-c3cncc(S(C)(=O)=O)c3)cc([C@H]3CC[C@H](O)CC3)n2n1 [Compound 194]
≤ 100 nM,+++ (“+++” represents a ratio of >100),1000 to 10000 nM,COC[C@H](C)Nc1ncc2c(-c3cncc(F)c3)cc([C@H]3CC[C@H](O)CC3)n2n1 [Compound 195]
≤ 100 nM,+++ (“+++” represents a ratio of >100),100 to 1000 nM,COC[C@H](C)Nc1ncc2c(-c3ccc(C(=O)N4CCCC4)cc3)cc([C@H]3CC[C@H](O)CC3)n2n1 [Compound 196]
≤ 100 nM,+++ (“+++” represents a ratio of >100),100 to 1000 nM,COCC(C)Nc1ncc2c(-c3ccc(-c4nnc(C)o4)cc3)cc(C3CCC(O)CC3)n2n1 (stereo not drawn) [Compound 198]
≤ 100 nM,+++ (“+++” represents a ratio of >100),100 to 1000 nM,CC(Nc1ncc2c(-c3ccc(CN4CCOCC4)cc3)cc(C3CCC(O)CC3)n2n1)C(F)(F)F (stereo not drawn) [Compound 202]
≤ 100 nM,+++ (“+++” represents a ratio of >100),1000 to 10000 nM,COC[C@H](C)Nc1ncc2c(-c3cnn(C(C)(C)C)c3)cc([C@H]3CC[C@H](O)CC3)n2n1 [Compound 206]
≤ 100 nM,+++ (“+++” represents a ratio of >100),100 to 1000 nM,COC[C@H](C)Nc1ncc2c(-c3cnn(C(F)F)c3)cc([C@H]3CC[C@H](O)CC3)n2n1 [Compound 207]
≤ 100 nM,+++ (“+++” represents a ratio of >100),1000 to 10000 nM,COC[C@H](C)Nc1ncc2c(-c3ccn(C)n3)cc([C@H]3CC[C@H](O)CC3)n2n1 [Compound 208]
≤ 100 nM,+++ (“+++” represents a ratio of >100),1000 to 10000 nM,COC[C@H](C)Nc1ncc2c(-c3cccc4c3CNC4=O)cc([C@H]3CC[C@H](O)CC3)n2n1 [Compound 210]
